Experimental data taken from ChEMBL document CHEMBL3507680, “University of Dundee, Gates Library screen for HepG2 cell viability”.

Assay: Human HepG2 cell viability assay in 384 well format
Format: toxicity, cell-based
Parameters: dose 125 nL, time 70.5 hour; concentration not given beside the values
Conditions: HepG2 cells, read-out: Inhibition

Compound | cytotoxicity at 70.5 h
CC(C)c1nc(CNC(C(=O)N2CCOCC2)C(C)C)no1 (stereo not given) | -5.23%
COc1ccc(-c2n[nH]cc2CN(C)Cc2nccn2C)c(F)c1 | -3.33%
CCn1ncc2c1CCCC2NCc1cccc2c1OCO2 (stereo not given) | 15.8%
O=C(NCCNc1cnccn1)NCC1CCS(=O)(=O)C1 (stereo not given) | -7.83%
Cc1cc(NS(=O)(=O)CC2CCCCO2)ccc1F (stereo not given) | -2.48%
CSCc1ccc(C(=O)N2CCN(CC(C)O)CC2)cc1 (stereo not given) | -15.3%
Cn1ccnc1CN1CCO[C@H]2C(CNC(=O)c3ccco3)CC[C@@H]21 (stereo not given in full) | -0.67%
Cc1ccc(N2CCC3(CCN(C(=O)c4ccnnc4)CC3)CC2)nn1 | 2.95%
O=C1CC(c2ccsc2)c2sc(C(=O)O)c(-c3ccc(F)cc3)c2N1 (stereo not given) | -4.46%
c1csc(-c2nnc(CSCCN3CCOCC3)o2)c1 | 12.2%
Cc1cc(C)n(CCCNC(=O)C2CCCO2)n1 (stereo not given) | 2.61%
Cc1ccc(C2(CN3CCCC3)CCNCC2)nc1 | -9.4%
Cc1cc(CN2CCC3(CC2)COC(COc2ccccn2)C3)no1 (stereo not given) | 43%
CCC[C@@H]1CN(Cc2cc(OC)c3c(c2)OCO3)C[C@H]1C(=O)O | -2.82%
CCN(Cc1cccc(F)c1)Cn1nc(C)c2c(C)onc2c1=O | -8.8%
CC/C=C(/C)C(=O)N1CSCC1C(=O)N(C)CCc1ccncc1 (stereo not given) | -4.98%
O=C(NCc1ccc(-n2cncn2)nc1)c1cc(Cl)ccn1 | 12.5%
CS(=O)(=O)NCc1ccc(NC(=O)CC2=CCCCC2)cc1 | -0.966%
O=C1COC2(CCN(Cc3ccncc3)CC2)CN1c1ccccc1 | 2.43%
Cc1cc(CS(=O)(=O)N(C)C(C)c2ccc(Cl)cc2)on1 (stereo not given) | -11.1%
COc1ccc(CCN(C)C2CCCN(Cc3noc(C)n3)C2)cc1 (stereo not given) | 25%
CC(=O)N1CCOC[C@H](Oc2ccc(C(F)(F)F)cc2)C1 | 1.19%
CN(C)[C@H]1CCN(c2nc(C(C)(C)C)nc3c2cnn3C)C1 | 27.9%

Compound | cytotoxicity at 70.5 h
CC(C)COCCC(=O)Nc1cc(-n2nnnc2C2CC2)ccc1F | -8.14%
CCc1nc2c(N3CCC4(CC3)CNC(=O)C4)ncnc2o1 | -3.31%
COc1ccc(-c2noc(Cn3cc4c(n3)CCC4)n2)c(OC)c1OC | -2.31%
CCOCc1cnc2n1CCN(C(=O)Cc1ccccn1)C2C (stereo not given) | -5.89%
Cn1cc(N2CC3(CCN(Cc4nccn4C)C3)CC2=O)cn1 (stereo not given) | -12.4%
c1ccc(Cc2noc(CN3CCOC(Cn4cncn4)C3)n2)cc1 (stereo not given) | 12%
CCN(CCS(=O)(=O)c1ccc(Cl)cc1)Cc1ccc(OC)c(OC)c1 | -12.9%
CCNC(=O)NCc1cccc(N2CC=CC2)c1 | 1.58%
O=C(c1ccc(Cl)cc1)N1CCC(N2CCCCC2=O)CC1 | -7.46%
CN(C)CCN(Cc1cccc(F)c1)C(=O)c1ccn(C)c(=O)c1 | -2.08%
CCNc1ncc2c(n1)CN(c1ccc(CC)cc1)C2=O | -8.79%
CCC1=N[C@@]2(CC[C@@H]3CN(CC(=O)N(C)C)C[C@@H]32)C(=O)N1CC(C)C | -6.91%
Cc1cnn(CC2CN(Cc3nc(-c4ccsc4)no3)CCO2)c1 (stereo not given) | -14.2%
Cc1cc(CN(C)C2CCCN(Cc3noc(C)n3)C2)on1 (stereo not given) | 17.4%
CC(C)S(=O)(=O)N1CCCC(c2cccc(C(=O)O)c2)C1 (stereo not given) | -10.1%
COCC1CC2(CCN(C(=O)c3cccc(C)c3)CC2)CO1 (stereo not given) | -12.6%
COc1cccc(NC(=O)c2cc3c([nH]c2=O)CCCC3=O)c1 | -8.19%
CC1CCN(C(CNC(=O)Cn2cccn2)c2cccs2)CC1 (stereo not given) | -7.96%
Cc1c(NCCCOc2cccc(C#N)c2)cccc1C(N)=O | 6.97%
O=C(NCC(CO)Cc1cccc(OC(F)(F)F)c1)c1cnccn1 (stereo not given) | 19.2%
COCc1nc(C2CCN(Cc3nccn3C)CC2)no1 | -4.44%
CC(C)CNC(=O)CN1C=Nc2ccccc2S1(=O)=O | 20.2%
CNC(=O)CC1CCN(C(=O)NCc2coc3ccccc23)CC1 | 7.31%

Compound | cytotoxicity at 70.5 h
CN(Cc1cc(Br)cn1C)C(=O)Cc1cccnc1 | -9.83%
c1cc(NCc2ccncc2)nc(C2CCCNC2)c1 (stereo not given) | -1.2%
O=C(NCCNc1ccccn1)NCC1CCS(=O)(=O)C1 (stereo not given) | 4.42%
CCNC(=O)C1CCCN(C(=O)Nc2ccc3c(c2)CCCN3C)C1 (stereo not given) | -9.82%
O=C(Nc1ccc(CCN2CCC(O)CC2)cc1)C1CCCOC1 (stereo not given) | -3.52%
CN(C)Cc1cnn(-c2ccccc2C(=O)N(C)Cc2ccccc2)c1 | -5.67%
CC(Cn1ccnc1)NS(=O)(=O)Cc1ccc(F)cc1 (stereo not given) | -2.62%
COCCn1cc(C(=O)N2CCCC2c2cc(C)on2)c2ccccc21 (stereo not given) | 1.11%
O=S1(=O)COCCN1CCCOc1ccc(F)cc1 | 22.1%
Cn1ncc2ccc(C3CCCN(Cc4cccs4)C3)nc21 (stereo not given) | -0.364%
COc1ccc(C[C@H]2CN(C(=O)c3ccncc3)CC[C@@H]2OC)cc1 | 18.8%
CCc1nc(N2CCOCC2)ncc1C(=O)NC(c1cccs1)C(C)C (stereo not given) | -0.678%
Cc1cnc(N2CCOC3(COCCN(c4nccs4)C3)C2)nc1 (stereo not given) | -4.6%
CC1(C)CN(Cc2c[nH]c(CC3CCCC3)n2)CC[C@]1(C)O | -5.46%
CC(=O)Nc1ccc(OCc2noc(C(=O)N3CCCC3)n2)cc1 | -14.2%
CN(C)CC1(O)CCCN(c2nc(-c3ccccc3)no2)CC1 (stereo not given) | -7.51%
Cc1cc(N2Cc3cnn(CCO)c3C2)nc(-c2ccccc2)n1 | -11.9%
CCOCCCC(=O)NCc1ccc(N2CCCCC2)cc1 | -11.1%
CCS(=O)(=O)CC(C)NC(=O)N(C)Cc1cc(Cl)cn1C (stereo not given) | -7.58%
COc1ccc(NC(=O)CCSc2ccc3nncn3n2)c(OC)c1 | -11.8%
NC(=O)C1CCN(C(=O)CCCc2nnc(-c3ccccc3)o2)CC1 | -10.4%
CCOC(=O)C1CCN(Cc2csc(-c3ccc(C)o3)n2)CC1 | -3.12%
CCN(CC)C(=O)CN1CCC2(C=Cc3cc(Cl)c(C)cc3O2)CC1 | 7.43%

Compound | cytotoxicity at 70.5 h
Cc1ccsc1C(=O)N1Cc2ncn(C)c2C(COCC2CC2)C1 (stereo not given) | 5.9%
COc1ccccc1OCCNC1CCCN(Cc2noc(C)n2)C1 (stereo not given) | 31.2%
CCNC(=O)c1ccnc(CC2COc3c(cccc3OC)C2)c1 (stereo not given) | -38.4%
CC(C)=CCCC1(C)C=Cc2c(cc(C)n(CCC(=O)O)c2=O)O1 (stereo not given) | 4.03%
Cn1cccc1C(=O)NCc1ccnc(C2CCCOC2)n1 (stereo not given) | -4.4%
CN(Cc1cscn1)C1CCCN(c2cccnn2)C1 (stereo not given) | 18%
CC(=O)N1Cc2ccccc2OC2(CCN(C(=O)C3CCOC3)CC2)C1 (stereo not given) | -1.13%
Cc1cc(C)n(C2CN(Cc3noc(C4CC4)n3)C2)n1 | 20.6%
CNC(=O)[C@@H]1C[C@H](n2cc(-c3ccc(Cl)cc3)nn2)CN1 | -3.41%
OCc1ccc(-c2nccn2CCC2=CCCCC2)o1 | -9.58%
Cc1csc([C@H]2C[C@@H]3CCN(Cc4cc(C)on4)C[C@H]3O2)n1 | -5.27%
Cc1nn(C)c(N(C)C)c1CNCCS(C)(=O)=O | 20.1%
COc1cc(F)ccc1C(C(=O)O)N(C)Cc1ccon1 (stereo not given) | -7.03%
CC(C(=O)N1CCCN(Cc2cscn2)CC1)N1CCOCC1 (stereo not given) | -8.05%
CC(C)C1CN(C(=O)c2ccncc2)CCS1 (stereo not given) | -1.14%
O=C(NCc1ccccc1F)N1CCCCC1C1OCCO1 (stereo not given) | -17.1%
COCC(O)CN1CCC(NC(=O)c2cscc2C)CC1 (stereo not given) | 3.56%
CCSc1ccc(C(C)NC(=O)CCS(C)(=O)=O)cc1 (stereo not given) | -9.87%
CN(C)CC1CSCCCN1S(=O)(=O)Cc1ccc(C(F)(F)F)cc1 (stereo not given) | -0.0412%
Cc1ncsc1CN1CCn2c(COc3cccnc3)cnc2C1C (stereo not given) | -2.69%
CC(C)N(C)Cc1nnc2n1CCN(S(=O)(=O)C1CC1)CC2 | -0.847%
O=C1CC2(CCN(C(=O)c3ccccn3)CC2)Oc2c(Cl)cc(Cl)cc21 | -6.72%
O=C(c1ccco1)N1CC[C@H]2[C@H]1CC(=O)N2c1cccnc1 | 21.7%

Compound | cytotoxicity at 70.5 h
CN(C)C1CCN(c2cc(-c3ccccc3)nc3ccnn23)C1 (stereo not given) | 5.02%
Cc1ccc(S(=O)(=O)NC(=O)C2(c3ccccc3)CCC2)c(C)c1 | -10.7%
CC(C)c1nc(CN2CCOC(Cn3cccn3)C2)no1 (stereo not given) | 1.63%
CC(CNC(=O)c1cc(N2CCNC2=O)ccc1F)c1ccccc1 (stereo not given) | -6.76%
COc1cc(C)sc1C(=O)N1CCCC(n2nc(C)nc2C)C1 (stereo not given) | 21.7%
CCC(=O)Nc1ncn(Cc2cccnc2)n1 | 15.8%
Cc1cnc(N2C[C@H]3C[C@H](C(=O)N(C)C)[C@@H](C2)O3)nc1 | -13.5%
O=C(NCCc1ccn(-c2ccccc2)n1)N1CCCC(O)C1 (stereo not given) | 1.8%
c1cn(CC2CCOCC2)c(-c2cc(CN3CCCC3)cs2)n1 | -3.55%
CCOCC1CN(Cc2ccccn2)Cc2nn(CC3CC3)cc21 (stereo not given) | -4.99%
CC(NC(=O)C1CCN(C(=O)C2CC2)CC1)c1nncn1C(C)C (stereo not given) | -4.92%
Cc1ccsc1CN(CCN(C)C)C(=O)c1cc2ccccc2[nH]1 | 4.92%
CCCNC(=O)c1nc2c(o1)CN(c1ncccn1)C2 | -2.16%
CC(NCC1CCN(CCO)CC1)c1cccc(Cl)c1 (stereo not given) | -2.07%
CCn1c2c(ccc1=O)CC(N)CC2 (stereo not given) | 15.2%
OC1(CN2CCCC2)CCCN(Cc2cnc(-c3ccco3)nc2)C1 (stereo not given) | 2.98%
O=C(Nc1nc(-c2ccccc2)ns1)N1CCC(F)CC1 | -3.26%
COc1cccc(-c2nc(CNCCc3cccnc3)cs2)c1 | -19.3%
COc1ccc(C(=O)C2CCCN(Cc3ccncc3)C2)c(OC)c1 (stereo not given) | -9.3%
CO[C@@H]1CCN(S(=O)(=O)N(C)C)[C@@H]2CN(Cc3cccnc3)C[C@@H]21 | -4.13%
Cn1ccnc1CN1CCCN(C(=O)c2ccc3[nH]nnc3c2)CC1 | -4.07%
COCC(=O)N1CCc2nc(-c3cnccn3)nc(O)c2C1 | -8.12%
Cc1ccc(NCCCNC(=O)C2CC3(CCNCC3)CN2C)nc1 (stereo not given) | -10.5%
